# Like-named read-outs stand apart in the source and are kept apart here.
# Tests used:
# [1] = test system: Molm-13 cells; assay: Leukemia cell proliferation inhibition test (ATPlite), Molm-13; type: cell-based; conditions: Homo sapiens, read-out: MOLM13 cell proliferation inhibition effect
# Procedure, shortened: (§1)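 Luminescent ATP read-out (firefly luciferase) used as a total cell count after 72 h compound exposure at 37° C, 5% CO2. Cells: 10,000/well in RPMI + 10% FBS. GI50 = 50% inhibition relative to 0.1% DMSO, from a sigmoid dose-response fit; duplicates.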
# [2] = molecular target: T1, human FLT3 protein (FLT3 (WT)) (Homo sapiens, UniProt P36888); assay: FLT3 inhibition test (FLT3 enzyme inhibition, time-resolved fluorescence of substrate peptide phosphorylation); type: biochemical; conditions: read-out: FLT3 (WT) enzyme inhibition activity
# T1 construct: human FLT3 protein (intracellular region, 564 to 993 aa); GST; purchased Carna Biosciences; host or cells: baculovirus expression system
# T1 sequence (P36888 564-993): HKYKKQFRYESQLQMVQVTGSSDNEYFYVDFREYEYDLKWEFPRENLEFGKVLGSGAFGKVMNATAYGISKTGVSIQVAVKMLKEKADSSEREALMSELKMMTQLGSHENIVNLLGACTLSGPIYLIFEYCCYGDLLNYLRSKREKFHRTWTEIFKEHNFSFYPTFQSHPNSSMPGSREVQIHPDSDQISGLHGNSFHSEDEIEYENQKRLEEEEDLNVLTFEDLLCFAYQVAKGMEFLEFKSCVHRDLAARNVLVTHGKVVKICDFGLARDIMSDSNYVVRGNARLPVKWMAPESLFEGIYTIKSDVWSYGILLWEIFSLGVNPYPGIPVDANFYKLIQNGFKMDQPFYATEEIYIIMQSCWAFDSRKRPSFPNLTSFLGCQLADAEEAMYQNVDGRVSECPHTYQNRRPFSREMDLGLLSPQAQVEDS
# Procedure, shortened: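 Substrate peptide phosphorylation detected by time-resolved fluorescence after a 30 min kinase reaction at 25° C with 50 μM ATP (final). Beforehand, compound and FLT3 (WT, 1.2 μg) stood 15 min at 25° C in HEPES buffer pH 7.5 containing MgCl2, NaCl, BSA and DTT.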
# [3] = test system: MV4-11 cells; assay: Leukemia cell proliferation inhibition test (ATPlite), MV4-11; type: cell-based; conditions: Homo sapiens, read-out: MV4-11 cell proliferation inhibition effect
# Procedure, shortened: as §1
# [4] = MOLM-13, 72 h, Molm-13, 72 hours culture, ATPlite, GI50 per method
# [5] = GST-fused human FLT3 (564 to 993 aa), ATP 50 μM
# [6] = MV4-11, 72 h, MV4-11, 72 hours culture, ATPlite, GI50 per method
SMILES,"IC50 [1, 4]","IC50 [2, 5]","IC50 [3, 6]","IC50 ([1]; MOLM-13, MOLM13 cell)",IC50 ([2]; FLT3 (WT)),"IC50 ([3]; MV4-11, MV4-11 cell)"
"COCCCNc1nc(Nc2ccnc(OC)c2)ncc1C#CCCCNC(=O)[C@@H]1C[C@H](F)CN1C(=O)/C=C/CN(C)C [Compound 9-34, (2S,4S)-1-((E)-4-(Dimethylamino)-2-butenoyl)-4-fluoro-N-(5-(4-((3-methoxypropyl)amino)-2-((methoxypyridin-4-yl)amino)pyrimidin-5-yl)-4-pentyn-1-yl)pyrrolidine-2-carboxamide]",< 0.01 µM,< 0.01 µM,< 0.01 µM,–,–,–
"CCCNc1nc(NCCc2ccncc2)ncc1C(=O)Nc1cccc(NC(=O)[C@H](C)N(C)C(=O)/C=C/CN(C)C)c1 [Compound 2-12, (S,E)-N-(3-(2-(4-(Dimethylamino)-N-methyl-2-butenamido)propanamido)phenyl)-4-(propylamino)-2-((2-(pyridin-4-yl)ethyl)amino)pyrimidine-5-carboxamide]",< 0.01 µM,< 0.01 µM,< 0.01 µM,–,–,–
C[C@@H](C(=O)NCCCC#Cc1cnc(Nc2ccc(C#N)cc2)nc1N1CCC1)N(C)C(=O)/C=C/CN(C)C [Compound 10-14],< 0.01 µM,< 0.01 µM,< 0.01 µM,–,–,–
CCCNc1nc(Nc2ccc(C#N)cc2)ncc1C#CCCCNC(=O)CN(CC(C)C)C(=O)/C=C/CN(C)C [Compound 7-65],< 0.01 µM,< 0.01 µM,< 0.01 µM,–,–,–
C=CC(=O)N(C)CC(=O)NCCCNC(=O)c1cnc(Nc2ccc3cnccc3c2)nc1NCCC [Compound 6-6],< 0.01 µM,< 0.01 µM,< 0.01 µM,–,–,–
CCCNc1nc(Nc2ccc(C(N)=O)cc2)ncc1-c1ccc(CNC(=O)CNC(=O)/C=C/CN(C)C)cc1 [Compound 16-2],0.1 to 1 µM,< 0.01 µM,0.01 to 0.1 µM,–,–,–
"CNc1nc(Nc2ccc(F)cc2)ncc1C#CCCCNC(=O)[C@@H]1C[C@@H](OC)CN1C(=O)/C=C/CN(C)C [Compound 7-83, (2S,4R)-1-((E)-4-(Dimethylamino)-2-butenoyl)-N-(5-(2-((4-fluorophenyl)amino)-4-(methylamino)pyrimidin-5-yl)-4-pentyn-1-yl)-4-methoxypyrrolidine-2-carboxamide]",< 0.01 µM,< 0.01 µM,< 0.01 µM,–,–,–
"CCCNc1nc(Nc2cccc(F)c2)ncc1C#Cc1cccc(NC(=O)[C@H](C)N(C)C(=O)/C=C/CN(C)C)c1 [Compound 8-1, (S,E)-4-(dimethylamino)-N-(1-((3-((2-((3-fluorophenyl)amino)-4-(propylamino)pyrimidin-5-yl)ethynyl)phenyl)amino)-1-oxopropan-2-yl)-N-methyl-2-butenamide]",< 0.01 µM,< 0.01 µM,< 0.01 µM,–,–,–
C=CC(=O)NCC(=O)Nc1cccc(C#Cc2cnc(Nc3ccc(C(N)=O)cc3)nc2NCCC)c1 [Compound 8-3],0.01 to 0.1 µM,< 0.01 µM,< 0.01 µM,–,–,–
CCCNc1nc(Nc2ccc3cnn(C)c3c2)ncc1C#CCCCNC(=O)[C@H](C)N(C)C(=O)/C=C/CN(C)C [Compound 21-9],< 0.01 µM,< 0.01 µM,< 0.01 µM,–,–,–
C[C@@H](C(=O)NCCCC#Cc1cnc(Nc2ccc3cnn(C)c3c2)nc1NC1CC1)N(C)C(=O)/C=C/CN(C)C [Compound 10-58],< 0.01 µM,< 0.01 µM,< 0.01 µM,–,–,–
"CCCNc1nc(Nc2ccc3ncsc3c2)ncc1C#CCCCNC(=O)[C@H](C)N(C)C(=O)/C=C/CN(C)C [Compound 22-6, (S,E)-N-(1-((5-(2-(Benzo[d]thiazol-6-ylamino)-4-(propylamino)pyrimidin-5-yl)-4-pentyn-1-yl)amino)-1-oxopropan-2-yl)-4-(dimethylamino)-N-methyl-2-butenamide]",–,–,–,< 0.01 µM,< 0.01 µM,< 0.01 µM
C=CC(=O)NC(C)(C)C(=O)NCCCNC(=O)c1cnc(Nc2ccc3cnccc3c2)nc1NCCC [Compound 6-7],0.01 to 0.1 µM,< 0.01 µM,0.01 to 0.1 µM,–,–,–
CC(C)Nc1nc(Nc2ccc(C#N)cc2)ncc1C#C[C@@H]1CCC[C@H](NC(=O)[C@H](C)N(C)C(=O)/C=C/CN(C)C)C1 [Compound 21-31],–,–,–,< 0.01 µM,< 0.01 µM,< 0.01 µM
"CCCNc1nc(Nc2cnc3c(cnn3C)c2)ncc1C#CCCCNC(=O)[C@@H]1CCCN1C(=O)/C=C/CN(C)C [Compound 22-43, (S,E)-1-(4-(Dimethylamino)-2-butenoyl)-N-(5-(2-((1-methyl-1H-pyrazolo[3,4-b]pyridin-5-yl)amino)-4-(propylamino)pyrimidin-5-yl)-4-pentyn-1-yl)pyrrolidine-2-carboxamide]",–,–,–,< 0.01 µM,< 0.01 µM,< 0.01 µM
CCCNc1nc(Nc2cccc(F)c2)ncc1C#CCCCNC(=O)[C@@H]1C[C@H](OC)CN1C(=O)/C=C/CN(C)C [Compound 7-59],< 0.01 µM,< 0.01 µM,< 0.01 µM,–,–,–
COCCNc1nc(Nc2ccc(F)cc2)ncc1C#C[C@@H]1CCC[C@H](NC(=O)[C@H](C)N(C)C(=O)/C=C/CN(C)C)C1 [Compound 22-37],–,–,–,< 0.01 µM,< 0.01 µM,< 0.01 µM
CC(C)Nc1nc(Nc2ccc(C#N)cc2)ncc1C#CCCCNC(=O)[C@H](C)N(C)C(=O)/C=C/CN(C)C [Compound 21-33],–,–,–,< 0.01 µM,< 0.01 µM,< 0.01 µM
CCCNc1nc(Nc2ccc3c(F)nn(C)c3c2)ncc1C#CCCCNC(=O)[C@@H]1CCCN1C(=O)/C=C/CN(C)C [Compound 22-59],–,–,–,< 0.01 µM,< 0.01 µM,< 0.01 µM
"C=CC(=O)N[C@@H](C)C(=O)Nc1cccc(NC(=O)c2cnc(NCCc3ccncc3)nc2NCCC)c1 [Compound 1-1, (S)—N-(3-(2-(acrylylamido)propanamido)phenyl)-4-(propylamino)-2-((2-(pyridin-4-yl)ethyl)amino)pyrimidine-5-carboxamide]",0.01 to 0.1 µM,< 0.01 µM,0.01 to 0.1 µM,–,–,–
CCCNc1nc(Nc2cnc3c(c2)c(C)nn3C)ncc1C#CCCCNC(=O)[C@H](C)N(C)C(=O)/C=C/CN(C)C [Compound 22-28],–,–,–,< 0.01 µM,< 0.01 µM,< 0.01 µM
CCCNc1nc(Nc2cccc(-n3nccn3)c2)ncc1C#CCCCNC(=O)[C@H](C)N(C)C(=O)/C=C/CN(C)C [Compound 22-19],–,–,–,< 0.01 µM,< 0.01 µM,< 0.01 µM
Cc1ccc(Nc2nc(Nc3cccc(F)c3)ncc2C#CCCCNC(=O)[C@H](C)N(C)C(=O)/C=C/CN(C)C)cc1 [Compound 10-11],0.01 to 0.1 µM,< 0.01 µM,< 0.01 µM,–,–,–
CNc1nc(Nc2ccc(F)cc2)ncc1C#CCCCNC(=O)[C@@H]1CCCN1C(=O)/C=C/CN(C)C [Compound 21-43],–,–,–,< 0.01 µM,< 0.01 µM,< 0.01 µM
"CCCNc1nc(Nc2cccc(F)c2)ncc1-c1nc2ccc(NC(=O)[C@H](C)N(C)C(=O)/C=C/CN(C)C)cc2o1 [Compound 6-23, (S,E)-4-(dimethylamino)-N-(1-((2-(2-((3-fluorophenyl)amino)-4-(propylamino)pyrimidin-5-yl)benzo[d]oxazol-6-yl)amino)-1-oxopropan-2-yl)-N-methyl-2-butenamide]",0.1 to 1 µM,0.01 to 0.1 µM,0.1 to 1 µM,–,–,–
